Assay results from ChEMBL document CHEMBL1201862, “PubChem BioAssay data set” (2004).
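Protocol summary: plate cells (96-well), add compound at 5 concentrations, incubate 48 h, interpolate endpoints linearly. GI50 is the concentration that inhibits growth by half.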 Active and inactive are the calls of the source. No stated cut-off is given here; in the data, active = GI50 up to about 1.1 µM and inactive = higher.

Key:
Experiment in all cases: NCI anticancer screen, dose series, 48 h
[1] = test system: 786-0
[2] = test system: A549
[3] = test system: ACHN
[4] = test system: BT-549
[5] = test system: CAKI-1
[6] = test system: CCRF-CEM
[7] = test system: COLO 205
[8] = test system: DU-145
[9] = test system: EKVX
[10] = test system: HCC 2998
[11] = test system: HCT-116
[12] = test system: HCT-15
[13] = test system: HL-60
[14] = test system: HOP-62
[15] = test system: HOP-92
[16] = test system: HT-29
[17] = test system: Hs-578T
[18] = test system: IGROV-1
[19] = test system: K562
[20] = test system: KM12
[21] = test system: LOX IMVI
[22] = test system: M14
[23] = test system: MCF7
[24] = test system: MDA-MB-231
[25] = test system: MDA-MB-435
[26] = test system: MDA-N
[27] = test system: MOLT-4
[28] = test system: Malme-3M
[29] = test system: NCI-H226
[30] = test system: NCI-H23
[31] = test system: NCI-H460
[32] = test system: NCI-H522
[33] = test system: NCI/ADR-RES
[34] = test system: OVCAR-3
[35] = test system: OVCAR-4
[36] = test system: OVCAR-5
[37] = test system: OVCAR-8
[38] = test system: PC-3
[39] = test system: RPMI-8226
[40] = test system: RXF 393
[41] = test system: SF-268
[42] = test system: SF-295
[43] = test system: SF-539
[44] = test system: SK-MEL-28
[45] = test system: SK-MEL-2
[46] = test system: SK-MEL-5
[47] = test system: SK-OV-3
[48] = test system: SN12C
[49] = test system: SNB-19
[50] = test system: SNB-75
[51] = test system: SR
[52] = test system: SW-620
[53] = test system: T47D
[54] = test system: TK-10
[55] = test system: U-251
[56] = test system: UACC-257
[57] = test system: UACC-62
[58] = test system: UO-31
[59] = test system: A498

COc1cc(C)cc(C(=O)OCc2ccccc2)c1C1=C(Cl)C(=O)C(Cl)=CC1=O
GI50 [1]: > 5.71 µM (inactive)
GI50 [2]: > 10 µM (inactive)
GI50 [3]: > 10 µM (inactive)
GI50 [4]: > 10 µM (inactive)
GI50 [5]: > 10 µM (inactive)
GI50 [6]: 2.08 µM (inactive)
GI50 [7]: > 6.14 µM (inactive)
GI50 [8]: > 10 µM (inactive)
GI50 [9]: > 10 µM (inactive)
GI50 [10]: > 10 µM (inactive)
GI50 [11]: > 10 µM (inactive)
GI50 [12]: > 10 µM
GI50 [13]: 1.86 µM (inactive)
GI50 [14]: > 10 µM (inactive)
GI50 [15]: 3.51 µM (inactive)
GI50 [16]: > 10 µM (inactive)
GI50 [17]: > 10 µM (inactive)
GI50 [18]: > 10 µM (inactive)
GI50 [19]: 2.27 µM (inactive)
GI50 [20]: > 10 µM (inactive)
GI50 [21]: > 10 µM (inactive)
GI50 [22]: > 10 µM (inactive)
GI50 [23]: > 9.42 µM (inactive)
GI50 [24]: > 10 µM (inactive)
GI50 [25]: > 10 µM (inactive)
GI50 [26]: > 10 µM (inactive)
GI50 [27]: 2.42 µM (inactive)
GI50 [28]: > 10 µM (inactive)
GI50 [29]: > 10 µM (inactive)
GI50 [30]: > 10 µM (inactive)
GI50 [31]: > 10 µM (inactive)
GI50 [32]: 2.05 µM (inactive)
GI50 [33]: > 10 µM (inactive)
GI50 [34]: 4.6 µM (inactive)
GI50 [35]: > 5.13 µM (inactive)
GI50 [36]: > 10 µM (inactive)
GI50 [37]: > 10 µM (inactive)
GI50 [38]: > 10 µM (inactive)
GI50 [39]: > 5.79 µM (inactive)
GI50 [40]: > 10 µM (inactive)
GI50 [41]: > 10 µM (inactive)
GI50 [42]: > 10 µM (inactive)
GI50 [43]: > 10 µM (inactive)
GI50 [44]: > 10 µM (inactive)
GI50 [45]: > 10 µM (inactive)
GI50 [46]: > 10 µM (inactive)
GI50 [47]: > 10 µM (inactive)
GI50 [48]: > 10 µM (inactive)
GI50 [49]: > 10 µM (inactive)
GI50 [50]: > 10 µM (inactive)
GI50 [51]: 4.13 µM (inactive)
GI50 [52]: > 7.59 µM (inactive)
GI50 [53]: 6.44 µM (inactive)
GI50 [54]: > 10 µM (inactive)
GI50 [55]: > 10 µM (inactive)
GI50 [56]: > 9.02 µM (inactive)
GI50 [57]: > 10 µM (inactive)
GI50 [58]: 3.25 µM (inactive)

Cc1cc(N(CCC#N)CCC#N)ccc1C(/N=N/c1ccc(Cl)cc1)=N\NC(=O)c1ccccc1
GI50 [1]: 34.6 µM (inactive)
GI50 [59]: 13.6 µM (inactive)
GI50 [2]: 42.7 µM (inactive)
GI50 [3]: 82 µM (inactive)
GI50 [4]: 25.6 µM (inactive)
GI50 [5]: 98.9 µM (inactive)
GI50 [6]: 31.5 µM (inactive)
GI50 [7]: 27.6 µM (inactive)
GI50 [8]: 44.7 µM (inactive)
GI50 [9]: 37.9 µM (inactive)
GI50 [10]: 31 µM (inactive)
GI50 [11]: 26.5 µM (inactive)
GI50 [12]: 16 µM
GI50 [13]: 25.5 µM (inactive)
GI50 [14]: 59.6 µM (inactive)
GI50 [16]: 20.5 µM (inactive)
GI50 [17]: 17 µM (inactive)
GI50 [18]: 24.5 µM (inactive)
GI50 [19]: 14.9 µM (inactive)
GI50 [20]: 20.2 µM (inactive)
GI50 [22]: 80.5 µM (inactive)
GI50 [23]: 13.6 µM (inactive)
GI50 [24]: 34.6 µM (inactive)
GI50 [25]: 5.62 µM (inactive)
GI50 [26]: 5.21 µM (inactive)
GI50 [27]: 40 µM (inactive)
GI50 [28]: 20.4 µM (inactive)
GI50 [29]: 31.3 µM (inactive)
GI50 [30]: 33.7 µM (inactive)
GI50 [31]: 39.7 µM (inactive)
GI50 [32]: 18.4 µM (inactive)
GI50 [33]: 27.4 µM (inactive)
GI50 [34]: 42.1 µM (inactive)
GI50 [35]: 47.8 µM (inactive)
GI50 [36]: > 100 µM (inactive)
GI50 [37]: 42.1 µM (inactive)
GI50 [38]: 32.5 µM (inactive)
GI50 [39]: 54.2 µM (inactive)
GI50 [40]: 49.2 µM (inactive)
GI50 [41]: 41.9 µM (inactive)
GI50 [42]: 9.23 µM (inactive)
GI50 [43]: 7.62 µM (inactive)
GI50 [45]: 84.1 µM (inactive)
GI50 [46]: 22 µM (inactive)
GI50 [47]: 42.6 µM (inactive)
GI50 [48]: 44.2 µM (inactive)
GI50 [49]: 41.9 µM (inactive)
GI50 [50]: 49.5 µM (inactive)
GI50 [51]: 9.59 µM (inactive)
GI50 [53]: 24.5 µM (inactive)
GI50 [54]: 60.5 µM (inactive)
GI50 [55]: 40.7 µM (inactive)
GI50 [56]: 58.7 µM (inactive)
GI50 [57]: 29.8 µM (inactive)
GI50 [58]: 67.6 µM (inactive)
